According to US20240376109A1, “PYRAZOLO[1,5-A]PYRIMIDINE COMPOUND FOR THE TREATMENT OF DERMAL DISORDERS” (OTSUKA PHARMACEUTICAL CO., LTD., priority 2021, published 2024):
Like-named read-outs stand apart in the source and are kept apart here.

Columns and labels:
PAR2 = biological target: T1, PAR2 (Homo sapiens, UniProt P55085); assay: Intracellular calcium concentration measurement (SLIGKV-NH2-induced calcium change, Fluo-8, FDSS/μCELL); assay type: cell-based
T1 construct: HEK293 cell lines derived from human embryonic kidney cultured in a MEM culture medium; endogenous in cells; host or cells: HEK293
T1 sequence (P55085 26-397): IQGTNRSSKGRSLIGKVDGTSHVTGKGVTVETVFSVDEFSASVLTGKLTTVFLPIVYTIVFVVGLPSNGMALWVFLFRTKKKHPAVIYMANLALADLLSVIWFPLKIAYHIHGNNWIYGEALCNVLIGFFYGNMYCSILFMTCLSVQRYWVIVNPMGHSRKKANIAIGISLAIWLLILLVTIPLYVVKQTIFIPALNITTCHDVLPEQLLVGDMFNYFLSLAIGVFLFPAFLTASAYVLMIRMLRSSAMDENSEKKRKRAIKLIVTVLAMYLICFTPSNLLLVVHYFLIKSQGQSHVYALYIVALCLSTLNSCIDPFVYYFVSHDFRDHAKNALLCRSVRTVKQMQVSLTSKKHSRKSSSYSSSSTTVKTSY

ICR mice = assay: Scratching behavior test with PAR2 agonist peptide (SLIGRL-NH2) administration; assay type: in vivo, mouse; conditions: 40 μL of 6% test compound solution applied to back, SLIGRL-NH2 intradermal, scratching counted 10 to 40 minutes after
Protocol: Test Example 2: Scratching Behavior Test with PAR2 Agonist Peptide Administration
Magnets for measuring scratching behavior(Neuroscience, Inc.) were implanted in both legs of 6- to 7-week-old female ICR mice under 3.5% isoflurane inhalation anesthesia.
Under isoflurane inhalation anesthesia, the upper back was shaved about 2×3 cm with a shaver and 40 μL of a 6% of test compound solution was applied with a micropipette. The animals were then kept in a dedicated cage for 1 hour. […] Then, under isoflurane inhalation anesthesia, 10 μL of a 25 mg/mL solution of PAR2 agonist peptide (SLIGRL-NH2) in distilled water was administered intradermally by using a needle attached to a Hamilton syringe. The animals were returned to the cage and the scratching frequency was measured by the device for 30 minutes from 10 to 40 minutes after the administration.
The inhibitory effect of the test compounds on scratching behavior was calculated as a percentage of the number of scratches in the solvent-applied and PAR2 agonist peptide-treated group, and is shown in Table 4 as a percentage.

NC/Nga mice = assay: Scratching behavior test using atopic dermatitis model (SDS and mite antigen ointment sensitization); conditions: 60 μL applied, 7 hours after application
NZW rabbits = assay: Rabbit skin cumulative irritation test (erythema and edema scores, 7 days); assay type: in vivo; design: key: sum of erythema (5-point scale) + edema (5-point scale) scores; conditions: 50 μL of 3% solution in 70% ethanol daily for 7 days; for Irritant score Day 7: average total score of erythema and edema on Day 7; for Irritant score Maximum: maximum (total) score of erythema and edema during the test period
Protocol: Test Example 4: Rabbit Skin Cumulative Irritation Test
18-20 week-old female NZW rabbits shaved on the back with a shaver were fitted with a collar (Natsume Seisakusho Co., Ltd.). A 2.5 cm×2.5 cm frame was placed on the back of the rabbits, and 50 μL of a 3% solution of each compound in 70% ethanol was applied to the place in 2 or 3 rabbits. The next day (approximately 24 hours later), the compound applied on the previous day was wiped off with a cotton pad soaked in lukewarm water, and approximately 30 minutes later, erythema (5-point scale) and edema (5-point scale) were evaluated according to the score criteria shown below.
After the score evaluation, the compound was applied again. This process was conducted for 7 days, and irritancy was evaluated by the average of the total score of erythema and edema on the last day of evaluation (Day 7) and the maximum (total) scores during the test period.
The score evaluation criteria were as follows.

[1] = HEK293 cells, SLIGKV-NH2 10 μM-induced intracellular calcium change, read-out: IC50
[2] = assessed concentration 6%, solvent 100% ethanol
[3] = assessed concentration 6%, solvent 70% ethanol
[4] = assessed concentration 1%, solvent 100% ethanol

| SMILES | IC50 (PAR2; [1]) [nM] | scratching-behavior inhibition rate (ICR mice; solvent 100% ethanol) [%] | also measured |
| --- | --- | --- | --- |
| CCCc1cc(C23CC4CC(CC(C4)C2)C3)nc2cc(C(=O)N3CCCCCC3)nn12 [Example 1] | 173 | 35 | Scratching behavior inhibition rate (NC/Nga mice; [2]): 76% |
| CC(C)c1cc(C23CC4CC(CC(C4)C2)C3)nc2cc(C(=O)N3CCCCC3(C)C)nn12 [Example 2] | 31 | 46 |  |
| O=C(c1cc2nc(CC3CCCCC3)cc(C(F)(F)F)n2n1)N1CCCCCC1 [Example 3, azepan-1-yl(5-(cyclohexylmethyl)-7-(trifluoromethyl)pyrazolo[1,5-a]pyrimidin-2-yl)methanone] | 23 |  | scratching-behavior inhibition rate (ICR mice; solvent 70% ethanol): 33%; Irritant score Day 7 (NZW rabbits): 1.5; Irritant score Maximum (NZW rabbits): 1.6; Scratching behavior inhibition rate (NC/Nga mice; [3]): 71% |
| O=C(c1cc2nc(CC3CCCC3)cc(C(F)(F)F)n2n1)N1CCCCCC1 [Example 4, azepan-1-yl(5-(cyclopentylmethyl)-7-(trifluoromethyl)pyrazolo[1,5-a]pyrimidin-2-yl)methanone] | 109 |  | Scratching behavior inhibition rate (NC/Nga mice; [3]): 56% |
| CC1(C)CC(O)CCN1C(=O)c1cc2nc(CC3CCCCC3)cc(C(F)(F)F)n2n1 (centres unmarked) [Example 5] | 130 | 36 |  |
| O=C(c1cc2nc(CCC3CCCC3)cc(C(F)(F)F)n2n1)N1CCCCCC1 [Example 6, azepan-1-yl(5-(2-cyclopentylethyl)-7-(trifluoromethyl)pyrazolo[1,5-a]pyrimidin-2-yl)methanone] | 149 |  | Scratching behavior inhibition rate (NC/Nga mice; [2]): 60% |
| CC(C)c1cc(CC2CCCCC2)nc2cc(C(=O)N3CCCCCC3)nn12 [Example 7, azepan-1-yl(5-(cyclohexylmethyl)-7-isopropylpyrazolo[1,5-a]pyrimidin-2-yl)methanone] |  | 32 | IC50 (PAR2; IC50 (nM)): 113 nM; Irritant score Day 7 (NZW rabbits): 0.3; Irritant score Maximum (NZW rabbits): 1.3; Scratching behavior inhibition rate (NC/Nga mice; [2]): 70% |
| O=C(c1cc2nc(CC3CCCCC3)cc(C3CCCCC3)n2n1)N1CCCCCC1 [Example 8, azepan-1-yl(7-cyclohexyl-5-(cyclohexylmethyl)pyrazolo[1,5-a]pyrimidin-2-yl)methanone] | 95 | 30 | Scratching behavior inhibition rate (NC/Nga mice; [2]): 50% |
| CCCCc1cc(CC2CCCCC2)nc2cc(C(=O)N3CCCCCC3)nn12 [Example 10] | 178 | 41 | Scratching behavior inhibition rate (NC/Nga mice; [4]): 48% |
| CCc1cc(CC2CCCC2)nc2cc(C(=O)N3CCCCC3(C)C)nn12 [Example 11] | 252 |  | Scratching behavior inhibition rate (NC/Nga mice; [2]): 80% |
| CCC(CC)c1cc(CC2CCCC2)nc2cc(C(=O)N3CCCCC3(C)C)nn12 [Example 13] | 69 | 37 |  |
| CC(C)c1cc(CCC2CCCC2)nc2cc(C(=O)N3CCCCCC3)nn12 [Example 14] | 186 |  | Irritant score Day 7 (NZW rabbits): 2.0; Irritant score Maximum (NZW rabbits): 2.0; Scratching behavior inhibition rate (NC/Nga mice; [2]): 95% |
| CCCc1cc(CC2CCCC2)nc2cc(C(=O)N3CCCCCC3)nn12 [Example 16] | 259 | 47 |  |
| CC(C)c1cc(CCC2CCCCC2)nc2cc(C(=O)N3CCCCCC3)nn12 [Example 17] | 232 |  | Irritant score Day 7 (NZW rabbits): 0.7; Irritant score Maximum (NZW rabbits): 1.3; Scratching behavior inhibition rate (NC/Nga mice; [2]): 60% |
| CC(C)c1cc(CC2CCCC2)nc2cc(C(=O)N3CCSCC3(C)C)nn12 [Example 18] | 36 | 39 |  |
| CCc1cc(CC2CCCCC2)nc2cc(C(=O)N3CCCCCC3)nn12 [Example 19] | 131 | 42 | Scratching behavior inhibition rate (NC/Nga mice; [4]): 70% |
| CC(C)c1cc(C2CCCCC2)nc2cc(C(=O)N3CCCCC3(C)C)nn12 [Example 32] | 118 | 41 |  |
| CCC(CC)c1cc(CC2CCCCC2)nc2cc(C(=O)N3CCCCCC3)nn12 [Example 37] | 88 | 30 |  |
| CC1(C)CNCCN1C(=O)c1cc2nc(C34CC5CC(CC(C5)C3)C4)cc(C(F)(F)F)n2n1 [Example 53, [5-(1-adamantyl)-7-(trifluoromethyl)pyrazolo[1,5-a]pyrimidin-2-yl]-(2,2-dimethylpiperazin-1-yl)methanone] | 404 |  | scratching-behavior inhibition rate (ICR mice; solvent Acetone/methanol (1:1)): 44% |
| O=C(c1cc2nc(C3CCCCC3)cc(C(F)(F)F)n2n1)N1CCCCCC1 [Example 54] | 355 |  | scratching-behavior inhibition rate (ICR mice; solvent Acetone/methanol (1:1)): 25% |
| O=C(c1cc2nc(C3CCCC3)cc(C(F)(F)F)n2n1)N1CCCCCC1 [Example 55] | 569 |  | scratching-behavior inhibition rate (ICR mice; solvent Acetone/methanol (1:1)): 47%; Scratching behavior inhibition rate (NC/Nga mice; assessed concentration 6%, solvent Acetone/methanol (1:1)): 54% |
| CC(C)c1cc(C23CC4CC(CC(C4)C2)C3)nc2cc(C(=O)N3CCNCC3(C)C)nn12 [Example 59] | 357 |  | scratching-behavior inhibition rate (ICR mice; solvent Acetone/methanol (1:1)): 28% |
| CC1(C)CCCCN1C(=O)c1cc2nc(C3CCCCC3)cc(C(F)(F)F)n2n1 [Example 65] | 107 | 27 |  |
| CCC(CC)c1cc(CC2CCCC2)nc2cc(C(=O)N3CCC(C)(C)C(=O)C3(C)C)nn12 [Example 70] | 51 | 33 |  |
| CC(C)c1cc(CC2CCCC2)nc2cc(C(=O)N3CCC(C)(C)C(=O)C3(C)C)nn12 [Example 71] | 115 | 27 |  |
| O=C(c1cc2nc(C34CC5CC(CC(C5)C3)C4)cc(C(F)(F)F)n2n1)N1CCCCCC1 [Example 94] | 141 |  | scratching-behavior inhibition rate (ICR mice; solvent Acetone/methanol (1:1)): 44% |
| CC1(C)CCN(C(=O)c2cc3nc(CC4CCCC4)cc(C(F)(F)F)n3n2)C(C)(C)C1=O [Example 105] | 83 | 27 |  |
| CC1(C)CNCCCN1C(=O)c1cc2nc(C34CC5CC(CC(C5)C3)C4)cc(C(F)(F)F)n2n1 [Example 110] | 228 |  | scratching-behavior inhibition rate (ICR mice; solvent Acetone/methanol (1:1)): 25% |
| CC(C)c1cc(CC2CCCC2)nc2cc(C(=O)N3CCCC(O)C3(C)C)nn12 (centres unmarked) [Example 117] | 169 | 34 |  |
| CC1(C)CCCCN1C(=O)c1cc2nc(C3CCCC3)cc(C(F)(F)F)n2n1 [Example 162] | 304 |  |  |
